The values below come from US20140249031A1, “MICELLE-COATED CRYSTALLINE PARTICLES” (SYNGENTA LIMITED, priority 2011, published 2014).

SMILES strings stand for the structures.

The nature of data set [1]: Visual release rate test of Bitrex in water. The class given is physicochemical. The conditions noted are these: after 15 minutes; 0.4 mg agitated in 10 ml of water. The method, then:
0.4 mg of sample was agitated in 10 ml of water and observed over 8 hours.

Data set [2] can be described thus: UV/Vis release rate measurement of Bitrex in water. The settings on record: 100 mg in 40 ml water. The class given is physicochemical. Here is the method: 2 ml of the mixture was removed at each time interval for analysis.

As to `CC[N+](CC)(CC(=O)Nc1c(C)cccc1C)Cc1ccccc1` [uncoated Bitrex, denatonium benzoate], in data set [1], the “visual release: state of sample in water” value is on record as “fully dissolved”. Further, the “% release of Bitrex relative to the total content” value in data set [2] (5 minutes) was 99.6%; in data set [2] (15 minutes) it was 99.8%.
